# In article PMC10242655, “Syringin inhibits endogenous volume regulated anion channel currents of HEK293 cells in hypotonic circumstances” (Pharmacology Research & Perspectives, 2023):
# Target: T1, VRAC (LRRC8A) (Homo sapiens, UniProt Q8IWT6)
# T1 construct: endogenous VRAC channels of wild-type HEK293 cells; with at least one other LRRC8 subunit (LRRC8B-E; composition not determined)
# T1 sequence (Q8IWT6 1-810): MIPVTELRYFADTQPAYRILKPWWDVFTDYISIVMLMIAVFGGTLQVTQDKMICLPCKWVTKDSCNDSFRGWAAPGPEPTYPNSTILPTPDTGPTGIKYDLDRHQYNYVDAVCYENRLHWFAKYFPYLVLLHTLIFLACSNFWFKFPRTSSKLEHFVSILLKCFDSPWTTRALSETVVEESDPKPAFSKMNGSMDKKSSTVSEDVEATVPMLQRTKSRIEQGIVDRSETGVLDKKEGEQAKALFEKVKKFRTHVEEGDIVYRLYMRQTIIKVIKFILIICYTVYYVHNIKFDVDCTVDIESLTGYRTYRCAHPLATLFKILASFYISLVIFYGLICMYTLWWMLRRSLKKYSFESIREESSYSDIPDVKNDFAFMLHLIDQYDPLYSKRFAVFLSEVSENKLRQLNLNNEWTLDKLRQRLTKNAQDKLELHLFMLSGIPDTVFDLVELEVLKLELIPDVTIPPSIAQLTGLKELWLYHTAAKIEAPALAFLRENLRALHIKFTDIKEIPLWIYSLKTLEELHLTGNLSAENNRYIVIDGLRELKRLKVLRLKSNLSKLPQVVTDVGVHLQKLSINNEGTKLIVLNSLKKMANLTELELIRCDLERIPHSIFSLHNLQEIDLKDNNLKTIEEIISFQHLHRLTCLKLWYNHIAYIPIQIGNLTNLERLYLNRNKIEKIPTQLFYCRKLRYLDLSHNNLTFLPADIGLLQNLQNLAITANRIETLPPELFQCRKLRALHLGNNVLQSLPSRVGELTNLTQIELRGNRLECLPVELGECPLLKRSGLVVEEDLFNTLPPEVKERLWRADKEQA
# Test: whole-cell patch clamp of hypotonicity-induced VRAC currents in HEK293; I/I0 […] at […]
# Format: cell-based
compound,measurement,value
"COc1cc(/C=C/CO)cc(OC)c1O[C@@H]1O[C@H](CO)[C@@H](O)[C@H](O)[C@H]1O [Syringin, 4‐[(1E)‐3‐hydroxyprop‐1‐en‐1‐yl]‐2,6‐dimethoxyphenyl β‐D‐glucopyranoside]",whole-cell patch clamp of hypotonicity-induced VRAC currents in HEK293; I/I0 0.6,I/I0 0.61 ± 0.02 at 100 μM
